According to patent publication US6809110B2 (Hoffmann-La Roche Inc., priority 2002, dated 2004):

How the values were obtained:
PPARα [1] = target: T1, PPARα (Homo sapiens, UniProt Q07869); experiment: Luciferase transcriptional reporter gene assay, BHK21 cells transfected with pFA-PPARα-LBD; type: cell-based; parameters: PPARα (aa 167 to 469); conditions: 24 hours incubation
T1 sequence (Q07869 167-468 limits assumed): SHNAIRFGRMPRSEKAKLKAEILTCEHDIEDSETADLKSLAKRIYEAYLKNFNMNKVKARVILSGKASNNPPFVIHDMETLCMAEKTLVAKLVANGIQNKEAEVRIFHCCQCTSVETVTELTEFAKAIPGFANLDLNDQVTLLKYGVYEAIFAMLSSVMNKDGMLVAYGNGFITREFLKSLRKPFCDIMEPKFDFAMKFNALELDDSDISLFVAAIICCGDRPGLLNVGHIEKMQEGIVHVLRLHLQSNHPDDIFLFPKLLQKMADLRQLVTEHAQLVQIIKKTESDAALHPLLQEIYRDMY
Protocol: (§1) Full-length cDNA clones for human PPARα and mouse PPARγ were obtained by RT-PCR from human adipose and mouse liver cRNA, respectively, cloned into plasmid vectors and verified by DNA sequencing. […] To accomplish this, the portions of the cloned sequences encoding the LBDs were amplified from the full-length clones by PCR and then subcloned into the plasmid vectors. Final clones were verified by DNA sequence analysis.
(§2) Baby hamster kidney cells (BHK21 ATCC CCL10) were grown in DMEM medium containing 10% FBS at 37° C. in a 95%02:5%CO2 atmosphere. Cells were seeded in 6 well plates at a density of 10^5 Cells/well and then batch-transfected with either the pPA-PPARγ-LBD or pFA-PPARα-LBD expression plasmids plus a reporter plasmid and an expression plasmid encoding the secretable form of alkaline phosphatase (SEAP) as a normalization control. […] Six hours following transfection, the cells were harvested by trypsinization and seeded in 96 well plates at a density of 10^4 cells/well. After 24 hours to allow attachment of cells, the medium was removed and replaced with 100 ul of phenol red-free medium containing the test substances or control ligands (final DMSO concentration: 0.1%). Following incubation of the cells for 24 hours with substances, 50 ul of the supernatant was recovered and analyzed for SEAP activity (Roche Molecular Biochemicals). The remainder of the supernatant was discarded, 50 ul PBS was added per well followed by one volume of Luciferase Constant-Light Reagent (Roche Molecular Biochemicals) to lyse the cells and initiate the luciferase reaction. Luminescence for both SEAP and luciferase was measured in a Packard TopCount. Luciferase activity was normalized to the SEAP control and transcriptional activation in the presence of a test substance was expressed as fold-activation over cells incubated in the absence of the substance. EC50 values were calculated using the XLfit program (ID Business Solutions Ltd. UK).

PPARγ [2] = target: T2, PPARγ (Mus musculus, UniProt P37238); experiment: Luciferase transcriptional reporter gene assay, BHK21 cells transfected with PPARγ-LBD expression plasmid; type: cell-based; parameters: PPARγ (aa 174 to 476) and PPARα (aa 167 to 469); expressed in transfected cells; host or cells: BHK21 (ATCC CCL10); conditions: 24 hours incubation
T2 sequence (P37238 204-505): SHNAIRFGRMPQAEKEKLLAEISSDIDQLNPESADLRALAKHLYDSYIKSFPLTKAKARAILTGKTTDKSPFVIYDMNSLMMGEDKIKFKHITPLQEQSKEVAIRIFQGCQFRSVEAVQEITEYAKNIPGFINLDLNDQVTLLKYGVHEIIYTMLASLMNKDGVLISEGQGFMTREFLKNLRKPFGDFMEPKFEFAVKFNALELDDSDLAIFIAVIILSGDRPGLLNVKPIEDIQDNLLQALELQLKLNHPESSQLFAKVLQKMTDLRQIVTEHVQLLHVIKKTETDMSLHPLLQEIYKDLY
Excerpt: (§3) Full-length cDNA clones for human PPARα and mouse PPARγ were obtained by RT-PCR from human adipose and mouse liver cRNA, respectively, cloned into plasmid vectors and verified by DNA sequencing. (With respect to cloning of PPARα cDNA, see Sher, T. et al. “cDNA doning, chromosomel mapping and functional characterization of the human peroxisome proliferator activated receptor”, Biochemistry 32(21) 5598-5604 (1993); with respect to cloning of PPARγ2 cDNA, see Tontonoy P., et al. “mPPAR gamma 2: tissue-specific regulator of an adipocyte enhancer”, Genes Dev. 8(10) 1224-34 (1994).) Bacterial and mammalian expression vectors were constructed to produce glutathione-s-transferase (GST) and Gal4 DNA binding domain proteins fused to the ligand binding domains (LBD) of PPARγ (aa 174 to 476) and PPARα (aa 167 to 469). To accomplish this, the portions of the cloned sequences encoding the LBDs were amplified from the full-length clones by PCR and then subcloned into the plasmid vectors. Final clones were verified by DNA sequence analysis.
as §2

PPARα [3] = target: T1, PPARα; experiment: PPARα radioligand binding assay (SPA, GST-PPARα-LBD fusion protein); parameters: PPARγ (aa 174 to 476) and PPARα (aa 167 to 469); made in house; host or cells: E. coli BL21(pLysS); conditions: SPA beads
Excerpt: as §1
(§4) Induction, expression, and purification of GST-LBD fusion proteins were performed in E. coli strain BL21(pLysS) cells by standard methods (Ref: Current Protocols in Molecular Biology, Wiley Press, edited by Ausubel et al.).
(§5) PPARα receptor binding was assayed in TKE50 (50 mM Tris-HCl, pH 8, 50 mM KCl, 2 mM EDTA, 0.1 mg/ml fatty acid-free BSA and 10 mM DTT). For each 96 well reaction a 140 ng equivalent of GST-PPARα-LBD fusion protein was bound to 10 ug SPA beads (PharmaciaAmersham) in a final volume of 50 ul by shaking. The resulting slurry was incubated for 1 h at RT and centrifuged for 2 min at 1300 g. The supernatant containing unbound protein was removed and the semidry pellet containing the recptor-coated beads was resolved in 50 ul of TKE. For radioligand binding e.g. 10000 dpm of 2(S)-(2-benzoyl-phenylamino)-3-{4-[1,1-ditritio-2-(5-methyl-2-phenyl-oxazol-4-yl)-ethoxy]-phenyl}-propionic acid or 2,3-ditritio-2(S)-methoxy-3-(4-(2-(5-methyl-2-phenyl-oxazol-4-yl)-ethoxy]-benzo[b]thiophen-7-yl}-propionic acid in 50 ul were added, the reaction incubated at RT for 1 h and scintillation proximity counting performed. All binding assays were performed in 96 well plates and the amount of bound ligand measured on a Packard TopCount using OptiPlates (Packard). Nonspecific binding was determined in the presence of 10^−4 M unlabelled compound. Dose response curves were done in triplicates within a range of concentration from 10^−10 M to 10^−4 M.

PPARγ [4] = target: T2, PPARγ; experiment: PPARγ radioligand binding assay (SPA, GST-PPARγ-LBD fusion protein); parameters: PPARγ (aa 174 to 476); conditions: SPA beads
Excerpt: as §3, §4
as §5, with “PPARγ receptor” for “PPARα receptor”, “reaction an” for “reaction a”, “of GST-PPARγ-LBD” for “of GST-PPARα-LBD”, “beads (PharmaciaArnersham)” for “beads (PharmaciaAmersham)”, “dpm” for “dpm of”, “2(S)-(2-benzoyl-phenylamino)-3-{4-[1,1-ditritio-2-(5-methyl-2-phenyl-oxazol-4-yl)-ethoxy]-phenyl}-propionic” for “2(S)-(2-benzoyl-phenylamino)-3-{4-[1,1-ditritio-2-(5-methyl-2-phenyl-oxazol-4-yl)-ethoxy]-phenyl}-propionic acid or 2,3-ditritio-2(S)-methoxy-3-(4-(2-(5-methyl-2-phenyl-oxazol-4-yl)-ethoxy]-benzo[b]thiophen-7-yl}-propionic”

PPARα [5] = target: T1, PPARα; experiment: Luciferase transcriptional reporter gene assay, BHK21 cells transfected with pFA-PPARα-LBD; type: cell-based; conditions: 24 hours incubation
Protocol: as §1
Baby hamster kidney cells (BHK21 ATCC CCL10) were grown in DMEM medium containing 10% FBS at 37° C. in a 95%02:5%CO2 atmosphere. Cells were seeded in 6 well plates at a density of 10^5 Cells/well and then batch-transfected with either the pPA-PPARγ-LBD or pFA-PPARα-LBD expression plasmids plus a reporter plasmid and an expression plasmid encoding the secretable form of alkaline phosphatase (SEAP) as a normalization control. […] Following incubation of the cells for 24 hours with substances, 50 ul of the supernatant was recovered and analyzed for SEAP activity (Roche Molecular Biochemicals). […] Luminescence for both SEAP and luciferase was measured in a Packard TopCount. Luciferase activity was normalized to the SEAP control and transcriptional activation in the presence of a test substance was expressed as fold-activation over cells incubated in the absence of the substance. EC50 values were calculated using the XLfit program (ID Business Solutions Ltd. UK).

PPARγ [6] = target: T2, PPARγ; experiment: PPARγ radioligand binding assay (SPA, GST-PPARγ-LBD fusion protein); conditions: SPA beads
Excerpt: Full-length cDNA clones for human PPARα and mouse PPARγ were obtained by RT-PCR from human adipose and mouse liver cRNA, respectively, cloned into plasmid vectors and verified by DNA sequencing. (With respect to cloning of PPARα cDNA, see Sher, T. et al. “cDNA doning, chromosomel mapping and functional characterization of the human peroxisome proliferator activated receptor”, Biochemistry 32(21) 5598-5604 (1993); with respect to cloning of PPARγ2 cDNA, see Tontonoy P., et al. “mPPAR gamma 2: tissue-specific regulator of an adipocyte enhancer”, Genes Dev. 8(10) 1224-34 (1994).) Bacterial and mammalian expression vectors were constructed to produce glutathione-s-transferase (GST) and Gal4 DNA binding domain proteins fused to the ligand binding domains (LBD) of PPARγ (aa 174 to 476) and PPARα (aa 167 to 469). To accomplish this, the portions of the cloned sequences encoding the LBDs were amplified from the full-length clones by PCR and then subcloned into the plasmid vectors. Final clones were verified by DNA sequence analysis. […]
PPARγ receptor binding was assayed in TKE50 (50 mM Tris-HCl, pH 8, 50 mM KCl, 2 mM EDTA, 0.1 mg/ml fatty acid-free BSA and 10 mM DTT). […] All binding assays were performed in 96 well plates and the amount of bound ligand measured on a Packard TopCount using OptiPlates (Packard). Nonspecific binding was determined in the presence of 10^−4 M unlabelled compound. […]

Row | EC50 (PPARα [1]) [nM] | EC50 (PPARγ [2]) [nM] | IC50 (PPARα [3]) [nM] | IC50 (PPARγ [4]) [nM] | EC50 (PPARα [5]) [nM] | IC50 (PPARγ [6]) [nM] | Structure (SMILES)
1 | 116 | 508 | 370 | 535 | – | – | CCOC(Cc1ccc(OCCc2csc(-c3ccc(C(F)(F)F)cc3)n2)c(F)c1)C(=O)O (racemic) [Example 25, [rac]-2-Ethoxy-3-(3-fluoro-4-{2-[2-(4-trifluoromethyl-phenyl)-thiazol-4-yl]-ethoxy}-phenyl)-propionic acid]
2 | 2110 | 543 | 50 | 52 | – | – | CCOC(Cc1ccc(OCCCc2csc(-c3ccc(C(C)C)cc3)n2)c(F)c1)C(=O)O (racemic) [Example 43, [rac]-2-Ethoxy-3-(3-fluoro-4-{3-[2-(4-isopropyl-phenyl)-thiazol-4-yl]-propoxy}-phenyl)-propionic acid]
3 | 27 | 209 | 24 | 738 | – | – | CCO[C@@H](Cc1ccc(OCc2csc(-c3ccc(Cl)cc3)n2)cc1C)C(=O)O [Example 20, (2S)-3-{4-[2-(4-Chloro-phenyl)-thiazol-4-ylmethoxy]-2-methyl-phenyl}-2-ethoxy-propionic acid]
4 | 400 | 389 | 133 | 96 | – | – | CCOC(Cc1ccc(OCc2csc(-c3ccc(C(C)C)cc3)n2)c(C)c1)C(=O)O (racemic) [Example 5, [rac]-2-Ethoxy-3-{4-[2-(4-isopropyl-phenyl)-thiazol-4-ylmethoxy]-3-methyl-phenyl}-propionic acid]

More lines, now with the values behind:

Row | Structure (SMILES) | EC50 (PPARα [1]) [nM] | EC50 (PPARγ [2]) [nM] | IC50 (PPARα [3]) [nM] | IC50 (PPARγ [4]) [nM] | EC50 (PPARα [5]) [nM] | IC50 (PPARγ [6]) [nM]
5 | CCOC(Cc1ccc(OCc2csc(-c3ccc(Cl)cc3)n2)cc1C)C(=O)O (racemic) [Example 14, [rac]-3-{4-[2-(4-chloro-phenyl)-thiazol-4-ylmethoxy]-2-methyl-phenyl}-2-ethoxy-propionic acid] | 77 | 608 | 109 | 457 | – | –
6 | CCOC(Cc1ccc(OCCCc2nc(-c3ccc(C(C)(C)C)cc3)sc2C)cc1C)C(=O)O (racemic) [Example 102, [rac]-3-(4-{3-[2-(4-tert-Butyl-phenyl)-5-methyl-thiazol-4-yl]-propoxy}-2-methyl-phenyl)-2-ethoxy-propionic acid] | 215 | 42 | 15 | 20 | – | –
7 | CCO[C@@H](Cc1ccc(OCc2csc(-c3cccc(Cl)c3)n2)cc1C)C(=O)O [Example 19, (2S)-3-{4-[2-(3-Chloro-phenyl)-thiazol-4-ylmethoxy]-2-methyl-phenyl}-2-ethoxy-propionic acid] | 71 | 60 | 89 | 179 | – | –
8 | CCOC(Cc1ccc(OCc2csc(-c3ccc(Cl)cc3)n2)c2ccoc12)C(=O)O (racemic) [Example 95] | – | 1580 | 114 | – | 54 | 925
9 | CCOC(Cc1ccc(OCCc2nc(-c3cc(OC)cc(OC)c3)sc2C)c(OC)c1)C(=O)O (racemic) [Example 64] | – | 281 | 95 | – | 513 | 84
10 | CCOC(Cc1ccc(OCCc2nc(-c3ccc(OC(F)(F)F)cc3)sc2C)c(C)c1)C(=O)O (racemic) [Example 60, [rac]-2-ethoxy-3-(3-methyl-4-{2-[5-methyl-2-(4-trifluoromethoxy-phenyl)-thiazol-4-yl]-ethoxy}-phenyl)-propionic acid] | 748 | 411 | 37 | 42 | – | –
